molecular target: Glutamate NMDA receptor; GRIN1/GRIN2A (Homo sapiens) (UniProt Q05586+Q12879); test: Inhibitory activity against NR1A expressed in combination with NR2A at 15 uM

inhibition | SMILES
32.1% | COc1cccc(OC)c1C/N=C(\N)c1cc2ccccc2[nH]1

molecular target: Glutamate NMDA receptor; test: Inhibition of NMDA-evoked intracellular calcium increase in rat cortical cell at 1 uM; format: functional, cell-based

inhibition | SMILES
57% | COc1cccc(C/N=C(\N)c2cc3ccccc3[nH]2)c1.Cl
32.8% | Cl.N=C(NCc1ccccc1)c1cc2ccccc2[nH]1
10.5% | COc1ccc(C/N=C(\N)c2cc3ccccc3[nH]2)cc1.Cl

organism: Mus musculus; test: Oral efficacy in mice formalin test; format: functional

SMILES | ED50
COc1ccccc1C/N=C(\N)c1cc2ccccc2[nH]1.Cl | 15 mg/kg

molecular target: Glutamate NMDA receptor; test: Inhibition of NMDA-evoked intracellular calcium increase in rat cortical cells; format: functional, cell-based

SMILES | IC50
COc1cccc(OC)c1C/N=C(\N)c1cc2cc(Cl)ccc2[nH]1 | 69 nM
Cc1ccccc1C/N=C(\N)c1cc2ccccc2[nH]1 | 170 nM
N=C(NCc1ccccc1F)c1cc2ccccc2[nH]1 | 232 nM
COc1cccc(OC)c1C/N=C(\N)c1cc2cc(F)ccc2[nH]1 | 17 nM
COc1ccccc1C/N=C(\N)c1cc2ccccc2[nH]1.Cl | 35 nM
COc1ccccc1CNC(=N)/C=C/c1ccccc1 | 6.6 nM
COc1ccc2[nH]c(C(=N)NCc3c(OC)cccc3OC)cc2c1 | 26 nM
COc1ccccc1C/N=C(\N)c1cc2cc(Cl)ccc2[nH]1 | 64 nM

The next lines start with the values.

IC50 | SMILES
33 nM | COc1ccccc1C/N=C(\N)c1cc2cc(F)ccc2[nH]1
159 nM | N=C(NCc1cc(Cl)cc(Cl)c1)c1cc2ccccc2[nH]1
19 nM | COc1ccc2[nH]c(C(=N)NCc3ccccc3OC)cc2c1
5.4 nM | COc1cccc(OC)c1C/N=C(\N)c1cc2ccccc2[nH]1
143 nM | N=C(NCc1c(F)cccc1F)c1cc2ccccc2[nH]1
